Laboratory results taken from patent publication US4987144A, “1,3-bis(1,2,4-triazol-1-yl)2-(4-trifluoromethylphenyl)propan-2-ol useful for the prevention and/or treatment of deep-seated mycosis” (SS Pharmaceutical Co., Ltd., priority 1989, dated 1991).

Legend:
Candida albicans [1] = test: Antimycotic activities of similar compounds in a manner similar to Test 1, oral administration (Referential Test); type: in vivo, Candida albicans (in male ICR mice); settings: in Mus musculus, 336 h, read-out: T/C; for response vs control in vivo at 40 mg: Dose (mg) 40, oral
Experimental: (§1) Male ICR mice of 4 weeks old were used as groups, each consisted of 5 mice. Each mouse was inoculated at caudal vein with 2.8×106^6 cells of Candida albicans. From one hour after the inoculation, each test compound was dissolved in 0.5 mλ of 0.06 N hydrochloric acid which had been added with "0.2% TO-10M" (trade name; product of Nikko Chemicals Co., Ltd.) and was orally administered once a day, four times in total. The mice were observed until the 14th day after the inoculation of the fungus. The average survival days of each group was compared with those of the control group to determine T/C (%). [formula]
In a manner similar to Test 1, antimycotic activities of each of the test compounds shown below in Table 2 were investigated. As will be readily envisaged from the results, practically no antimycotic activities were observed from the oral administration of those compounds.

[2] = Measurement of body weight variations (Test 2); type: in vivo, male ICR mice; settings: for body weight change after administration (in words): group administered with the compound; for body weight: 2.5 mg/Kg
Candida albicans [3] = test: Antimycotic activities: survival of mice inoculated with Candida albicans, oral administration (Test 1); type: in vivo, Candida albicans (in male ICR mice); settings: for T/C: once a day, four times, average survival days vs control, to 14th day after inoculation
Experimental: as §1

Acute toxicity, oral = settings: mouse, in vivo, mice, P.O.

Question: For N#Cc1ccc(C(O)(Cn2cncn2)Cn2cncn2)c(F)c1, which response vs control in vivo at 40 mg (Candida albicans [1]) is on record?
Answer: Its response vs control in vivo at 40 mg is 81%.

Question: For OC(Cn1cncn1)(Cn1cncn1)c1ccc(-c2ccc(F)cc2)cc1, which response vs control in vivo at 40 mg (Candida albicans [1]) is on record?
Answer: The response vs control in vivo at 40 mg was 136%.

Question: For CC(=O)Nc1ccc(C(O)(Cn2cncn2)Cn2cncn2)c(F)c1, which response vs control in vivo at 40 mg (Candida albicans [1]) is on record?
Answer: Its response vs control in vivo at 40 mg is 82%.

Question: Which response vs control in vivo at 20 mg (Candida albicans [1]; Dose (mg) 20, oral) does the source give for OC(Cn1cncn1)(Cn1cncn1)c1cc(C(F)(F)F)cc(C(F)(F)F)c1 here?
Answer: The response vs control in vivo at 20 mg was 118%.

Question: For CCCOc1cc(F)ccc1C(O)(Cn1cncn1)Cn1cncn1, which response vs control in vivo at 40 mg (Candida albicans [1]) is on record?
Answer: Its response vs control in vivo at 40 mg is 125%.

Question: Which response vs control in vivo at 40 mg (Candida albicans [1]) does the source give for Oc1c(F)cc(C(O)(Cn2cncn2)Cn2cncn2)cc1F here?
Answer: Its response vs control in vivo at 40 mg is 82%.

Question: Which response vs control in vivo at 40 mg (Candida albicans [1]) does the source give for COc1c(F)cc(C(O)(Cn2cncn2)Cn2cncn2)cc1F here?
Answer: Its response vs control in vivo at 40 mg is 91%.

Question: Which response vs control in vivo at 40 mg (Candida albicans [1]) does the source give for OC(Cn1cncn1)(Cn1cncn1)c1cc(F)c(OCc2ccccc2)c(F)c1 here?
Answer: Its response vs control in vivo at 40 mg is 73%.

Question: Which response vs control in vivo at 40 mg (Candida albicans [1]) does the source give for OC(Cn1cncn1)(Cn1cncn1)c1ccc(F)cc1OCc1ccccc1 here?
Answer: Its response vs control in vivo at 40 mg is 122%.

Question: For OC(Cn1cncn1)(Cn1cncn1)c1ccc(F)cc1OCc1ccc(F)cc1, which response vs control in vivo at 40 mg (Candida albicans [1]) is on record?
Answer: Its response vs control in vivo at 40 mg is 117%.

Question: Which response vs control in vivo at 40 mg (Candida albicans [1]) does the source give for Oc1cc(F)c(F)cc1C(O)(Cn1cncn1)Cn1cncn1 here?
Answer: The response vs control in vivo at 40 mg was 125%.

Question: Which “body weight change after administration (in words)” value [2] does the source give for OC(Cn1cncn1)(Cn1cncn1)c1ccc(F)cc1F [Fluconazole] here?
Answer: Its value is “body weight reductions were observed”.

Question: And the T/C (Candida albicans [3]; 1.25 mg/kg)?
Answer: Its T/C is 143%.

Question: What about the T/C (Candida albicans [3]; 2.5 mg/kg) of the same compound?
Answer: The T/C was 379%.

Question: And the T/C (Candida albicans [3]; 5 mg/kg)?
Answer: Its T/C is 443%.

Question: For OC(Cn1cncn1)(Cn1cncn1)c1ccc(C(F)(F)F)cc1 [Triazole compound (I), 1,3-bis(1,2,4-triazol-l-yl)-2-(4-trifluoromethylphenyl)propan-2-ol], which LD50 (Acute toxicity, oral) is on record?
Answer: Its LD50 is 1200 mg/kg.

Question: And the body weight ([2]; 0 days after administration)?
Answer: Its body weight is 21.0 g.

Question: And the body weight ([2]; 1 day after administration)?
Answer: Its body weight is 20.6 g.

Question: And the body weight ([2]; 2 days after administration)?
Answer: Its body weight is 21.4 g.

Question: What about the body weight ([2]; 3 days after administration) of the same compound?
Answer: Its body weight is 22.2 g.

Question: And the body weight ([2]; 4 days after administration)?
Answer: Its body weight is 23.0 g.

Question: And the body weight ([2]; 5 days after administration)?
Answer: The body weight was 23.3 g.

Question: And the body weight ([2]; 6 days after administration)?
Answer: Its body weight is 23.1 g.

Question: What about the “body weight change after administration (in words)” value [2] of the same compound?
Answer: The value was “the body weight increased steadily”.

Question: What about the T/C (Candida albicans [3]; 1.25 mg/kg) of the same compound?
Answer: Its T/C is 186%.

Question: And the T/C (Candida albicans [3]; 2.5 mg/kg)?
Answer: The T/C was 385%.

Question: And the T/C (Candida albicans [3]; 5 mg/kg)?
Answer: The T/C was 450%.

Question: What about the “apothanasia effects upon oral administration (in words)” value (Candida albicans [3]; compared with fluconazole) of the same compound?
Answer: The value was “greater than fulconazole”.
